Values quoted from earlier work in patent US20090226374A1, “ANAPHYLATOXINS FOR DETECTING CLINICAL CONDITIONS” (Health Aide, Inc., priority 2003, published 2009).
Read-outs that look alike come from different tables or passages of the source. Marks after values point to notes of the source that are not given here. Where no end group is shown, it is not given here. [ ]: non-standard residue; d: D form. The star is where a group is joined. Fmoc = O=C(OCC1c2ccccc2-c2ccccc21)*; Ahx = NCCCCCC(=O)O

What was measured:
[1] = tested on: guinea pig platelet; conditions: guinea pig platelet aggregation
[2] = assay not given
[3] = tested on: guinea pig ileum; conditions: for Relative Act. %: natural human C3a (1-77) = 100; for Relative Act. % / Relative molar activity (%): guinea pig ileum contraction; for Relative molar activity (%): pentapeptide L-G-L-A-R (C3a 73-77) = 100
[4] = natural factor C3a (1-77) = 100
[5] = natural C3a of each species; human C3a = 100

W-G-G-Y-R-A-S-K-L-G-L-A-R (WGGYRASKLGLAR) [Peptide B5]
Potency relative to C3a (57-77), % [1]: 99%

W-W-Ahx-Y-R-A-S-K-L-G-L-A-R (WW[Ahx]YRASKLGLAR) [Peptide C6]
Potency relative to C3a (57-77), % ([2]; Table 1E): 603%

L-G-I-A-R [Peptide 14]
Relative Act. % [3]: 0.8%
Relative molar activity (%) [3]: 10%

M-G-L-A-R [Peptide 6]
Relative Act. % [3]: 0.005%
Relative molar activity (%) [3]: 50%

I-R-R-R-Y-A-S-K-L-G-L-A-R (IRRRYASKLGLAR) [Peptide B15]
Potency relative to C3a (57-77), % [1]: 99%

I-I-G-G-Y-R-K-S-A-L-G-L-A-R (IIGGYRKSALGLAR) [Peptide B9]
Potency relative to C3a (57-77), % [1]: 37%

Fmoc-Ahx-Y-S-H-K-G-M-L-L-G-R ({Fmoc-Ahx}-YSHKGMLLGR) [Peptide C9]
Potency relative to C3a (57-77), % ([2]; Table 1E): 0.8%

Y-R-A-S-K-L-G-L-A-R (YRASKLGLAR) [Peptide B3]
Potency relative to C3a (57-77), % [1]: 55%

L-A-L-A-R [Peptide 8]
Relative Act. % [3]: 0.59%
Relative molar activity (%) [3]: 270%

Fmoc-R-A-A-A-L-G-L-A-R (Fmoc-RAAALGLAR) [Peptide D4]
Potency relative to C3a (57-77), % ([2]; Table 1F): 79%

L-L-L-A-R [Peptide 11]
Relative Act. % [3]: 0.023%
Relative molar activity (%) [3]: 10%

L-G-A-A-R [Peptide Code 12]
Relative molar activity (%) [3]: <1.4%

W-R-R-R-Y-A-S-K-L-G-L-A-R (WRRRYASKLGLAR) [Peptide B14]
Potency relative to C3a (57-77), % [1]: 66%

Fmoc-G-G-Y-R-A-S-K-L-G-L-A-R (Fmoc-GGYRASKLGLAR) [Peptide D8]
Potency relative to C3a (57-77), % ([2]; Table 1F): 227%

W-W-R-R-R-Y-A-S-K-L-G-L-A-R (WWRRRYASKLGLAR) [Peptide B16]
Potency relative to C3a (57-77), % [1]: 296%

Fmoc-A-A-R-A-L-G-L-A-R (Fmoc-AARALGLAR) [Peptide D2]
Potency relative to C3a (57-77), % ([2]; Table 1F): 41%

H-Trp-Trp-Gly-Lys-Lys-Tyr-Arg-Ala-Ser-Lys-Leu-Gly-Leu-Ala-Arg-OH (H-WWGKKYRASKLGLAR-OH) [Peptide E7]
Relative molar activity (%) [4]: >100** %

W-Ahx-Y-A-S-K-L-G-L-A-R (W[Ahx]YASKLGLAR) [Peptide C4]
Potency relative to C3a (57-77), % ([2]; Table 1E): 22%

W-W-G-G-Y-R-K-S-A-L-G-L-A-R (WWGGYRKSALGLAR) [Peptide D11]
Potency relative to C3a (57-77), % ([2]; Table 1F): 259%

W-W-G-G-Y-R-P-S-A-L-G-L-A-R (WWGGYRPSALGLAR) [Peptide D12]
Potency relative to C3a (57-77), % ([2]; Table 1F): 252%

I-G-G-G-Y-R-K-S-A-L-G-L-A-R (IGGGYRKSALGLAR) [Peptide B11]
Potency relative to C3a (57-77), % [1]: 16%

L-V-L-A-R [Peptide 10]
Relative Act. % [3]: 1.2%
Relative molar activity (%) [3]: 10%

F-G-L-A-R [Peptide 3]
Relative Act. % [3]: 1.1%
Relative molar activity (%) [3]: 140%

Fmoc-Y-R-A-S-K-L-G-L-A-R (Fmoc-YRASKLGLAR) [Peptide B4]
Potency relative to C3a (57-77), % [1]: 121%

Ahx-Y-S-H-K-G-M-L-L-G-R ([Ahx]YSHKGMLLGR) [Peptide C8]
Potency relative to C3a (57-77), % ([2]; Table 1E): 0.4%

L-G-V-A-R [Peptide 17]
Relative Act. % [3]: <0.005%
Relative molar activity (%) [3]: <1.1%

R-R-Y-A-S-K-L-G-L-A-R (RRYASKLGLAR) [Peptide B12]
Potency relative to C3a (57-77), % [1]: 18%

Fmoc-R-R-R-Y-A-S-K-L-G-L-A-R (Fmoc-RRRYASKLGLAR) [Peptide B17]
Potency relative to C3a (57-77), % [1]: 261%

Fmoc-A-R-A-A-L-G-L-A-R (Fmoc-ARAALGLAR) [Peptide D3]
Potency relative to C3a (57-77), % ([2]; Table 1F): 37%

W-I-G-G-Y-R-A-S-K-L-G-L-A-R (WIGGYRASKLGLAR) [Peptide B7]
Potency relative to C3a (57-77), % [1]: 118%

Fmoc-Ahx-Y-R-A-S-K-L-G-L-A-R ({Fmoc-Ahx}-YRASKLGLAR) [Peptide C5]
Potency relative to C3a (57-77), % ([2]; Table 1E): 112%
Potency relative to C3a (57-77), % ([2]; Table 1F): 112%

L-G-M-A-R [Peptide 15]
Relative Act. % [3]: 0.25%
Relative molar activity (%) [3]: 2.1%

L-G-L-Q-R [Peptide 20]
Relative molar activity (%) [3]: 2.8%

C3a (1-77): Natural human C3a anaphylatoxin (1-77), the natural factor
Relative molar activity (%) [4]: 100%
Potency % [5]: 100%
Relative Act. % [3]: 100%

L-G-L-A-R (LGLAR) [Peptide Code 5]
Potency relative to C3a (57-77), % ([3]; asterisk: based on guinea pig ileal assay): 0.2* %
Relative Act. % [3]: 5.9%
Relative molar activity (%) [3]: 100%

Fmoc-Ahx-Y-A-S-K-L-G-L-A-R ({Fmoc-Ahx}-YASKLGLAR) [Peptide C3]
Potency relative to C3a (57-77), % ([2]; Table 1E): 22%

Fmoc-I-R-R--R-Y-A-S-K-L-G-L-A-R (Fmoc-IRRRYASKLGLAR) [Peptide B18]
Potency relative to C3a (57-77), % [1]: 50%

Fmoc-A-A-A-R-L-G-L-A-R (Fmoc-AAARLGLAR) [Peptide D1]
Potency relative to C3a (57-77), % ([2]; Table 1F): 66%

W-W-G-G-Y-R-A-S-K-L-G-L-A-R (WWGGYRASKLGLAR) [Peptide B6]
Potency relative to C3a (57-77), % [1]: 259%

R-Y-A-S-K-L-G-L-A-R (RYASKLGLAR) [Peptide B2]
Potency relative to C3a (57-77), % [1]: 7.0%

W-Ahx-Y-S-H-K-G-M-L-L-G-R (W[Ahx]YSHKGMLLGR) [Peptide C10]
Potency relative to C3a (57-77), % ([2]; Table 1E): 1.2%

L-G-L-E-R [Peptide 23]
Relative molar activity (%) [3]: <2.6%

L-Q-L-A-R [Peptide 12]
Relative Act. % [3]: <0.003%
Relative molar activity (%) [3]: <5.5%

Fmoc-W-W-R-R-R-Y-A-S-K-L-G-L-A-R (Fmoc-WWRRRYASKLGLAR) [Peptide B19]
Potency relative to C3a (57-77), % [1]: 53%

Ahx-Y-A-S-K-L-G-L-A-R ([Ahx]YASKLGLAR) [Peptide C2]
Potency relative to C3a (57-77), % ([2]; Table 1E): 13%

G-I-G-G-Y-R-K-S-A-L-G-L-A-R (GIGGYRKSALGLAR) [Peptide B10]
Potency relative to C3a (57-77), % [1]: 41%

L-G-F-A-R [Peptide 16]
Relative Act. % [3]: 1.0%
Relative molar activity (%) [3]: <1.5%

H-Ala-Ser-His-Leu-Gly-Leu-Ala-Arg-OH (H-ASHLGLAR-OH) [C3a-(70-77)]
Relative molar activity (%) [4]: 2.0%

L-E-L-A-R [Peptide 13]
Relative Act. % [3]: 2.0%
Relative molar activity (%) [3]: <2.4%

H-Arg-Gln-His-Ala-Arg-Ala-Ser-His-Leu-Gly-Leu-Ala-Arg-OH (H-RQHARASHLGLAR-OH) [C3a-(65-77)]
Relative molar activity (%) [4]: 2.5%

Fmoc-R-A-A-R-L-G-L-A-R (Fmoc-RAARLGLAR) [Peptide D5]
Potency relative to C3a (57-77), % ([2]; Table 1F): 61%

L-G-L-P-R [Peptide 19]
Relative molar activity (%) [3]: 3.5%

L-G-L-S-R [Peptide 21]
Relative molar activity (%) [3]: 0.7%

Y-A-S-K-L-G-L-A-R (YASKLGLAR) [Peptide C1]
Potency relative to C3a (57-77), % ([2]; Table 1E): 3.4%

L-S-L-A-R [Peptide 9]
Relative Act. % [3]: 2.0%
Relative molar activity (%) [3]: 55%

FmocW-R-R-R-Y-A-S-K-L-G-L-A-R (Fmoc-WRRRYASKLGLAR) [Peptide B20]
Potency relative to C3a (57-77), % [1]: 70%

H-Cys-Asn-Tyr-Ile-Thr-Glu-Leu-Arg-Arg-Gln-His-Ala-Arg-Ala-Ser-His-Leu-Gly-Leu-Ala-Arg-OH (H-CNYITELRRQHARASHLGLAR-OH) [C3a-(57-77)]
Relative molar activity (%) [4]: >20* %

W-W-G-G-Y-R-A-S-A-L-G-L-A-R (WWGGYRASALGLAR) [Peptide D10]
Potency relative to C3a (57-77), % ([2]; Table 1F): 181%

Fmoc-K-K-Y-R-A-S-K-L-G-L-A-R (Fmoc-KKYRASKLGLAR) [Peptide D7]
Potency relative to C3a (57-77), % ([2]; Table 1F): 279%

Y-S-H-K-G-M-L-L-G-R (YSHKGMLLGR) [Peptide C7]
Potency relative to C3a (57-77), % ([2]; Table 1E): 0.5%

Fmoc-R-R-Y-R-A-S-K-L-G-L-A-R (Fmoc-RRYRASKLGLAR) [Peptide D6]
Potency relative to C3a (57-77), % ([2]; Table 1F): 176%

W-W-G-G-Y-R-a-S-A-L-G-L-A-R (WWGGYR[dA]SALGLAR) [Peptide D13]
Potency relative to C3a (57-77), % ([2]; Table 1F): 118%

A-G-L-A-R [Peptide 7]
Relative Act. % [3]: <0.001%
Relative molar activity (%) [3]: 20%

V-G-L-A-R [Peptide 5]
Relative Act. % [3]: 0.2%
Relative molar activity (%) [3]: 90%

I-I-G-G-Y-R-A-S-K-L-G-L-A-R (IIGGYRASKLGLAR) [Peptide B8]
Potency relative to C3a (57-77), % [1]: 50%

R-R-R-Y-A-S-K-L-G-L-A-R (RRRYASKLGLAR) [Peptide B13]
Potency relative to C3a (57-77), % [1]: 50%

Y-G-L-A-R [Peptide 2]
Relative Act. % [3]: 2.3%
Relative molar activity (%) [3]: 160%

L-G-L-G-R [Peptide 22]
Relative molar activity (%) [3]: <5.8%

I-G-L-A-R [Peptide 4]
Relative Act. % [3]: 0.8%
Relative molar activity (%) [3]: 100%
